Where two headings read alike, the source gives them in different places.
Key:
B16F10 cells = assay: Proliferation assay B16F10 (Method 3); format: cell-based, mouse; details: 4 days, crystal violet, read-out: Inhibition of Bc6F10 cell proliferation IC50
Protocol: Cultivated tumour cells (HeLa, human cervical tumour cells, ATCC CCL-2; NCI-H460, human non-small cell lung carcinoma cells, ATCC HTB-177; A2780, human ovarian carcinoma cells, ECACC #93112519; DU 145, hormone-independent human prostate carcinoma cells, ATCC HTB-81; HeLa-MaTu-ADR, multidrug-resistant human cervical carcinoma cells, EPO-GmbH Berlin; Caco-2, human colorectal carcinoma cells, ATCC HTB-37; B16F10, mouse melanoma cells, ATCC CRL-6475) were plated at a density of 5,000 cells/well (DU145, HeLa-MaTu-ADR), 3,000 cells/well (NCI-H460, HeLa), 2,500 cells/well (A2780), 1,500 cells/well (Caco-2), or 1,000 cells/well (B16F10) in a 96-well multititer plate in 200 μL of their respective growth medium supplemented 10% fetal calf serum. After 24 hours, the cells of one plate (zero-point plate) were stained with crystal violet (see below), while the medium of the other plates was replaced by fresh culture medium (200 μl), to which the test substances were added in various concentrations (0 μM, as well as in the range of 0.001-10 μM; the final concentration of the solvent dimethyl sulfoxide was 0.5%). The cells were incubated for 4 days in the presence of test substances. Cell proliferation was determined by staining the cells with crystal violet: the cells were fixed by adding 20 μl/measuring point of an 11% glutaric aldehyde solution for 15 minutes at room temperature. After three washing cycles of the fixed cells with water, the plates were dried at room temperature. The cells were stained by adding 100 μl/measuring point of a 0.1% crystal violet solution (pH 3.0). After three washing cycles of the stained cells with water, the plates were dried at room temperature. The dye was dissolved by adding 100 μl/measuring point of a 10% acetic acid solution. The extinction was determined by photometry at a wavelength of 595 nm. The change of cell number, in percent, was calculated by normalization of the measured values to the extinction values of the zero-point plate (=0%) and the extinction of the untreated (0 μm) cells (=100%). The IC50 values (inhibitory concentration at 50% of maximal effect) were determined by means of a 4 parameter fit.

[1] = Caco-2 permeation assay (Method 4); format: in vitro ADME; details: human, 2 μM test compound; for efflux ratio at 2 h, 2 μM: Caco-2, pH 7.2, read-out: Efflux ratio (Papp B-A/Papp A-B); for Papp A→B at 2 h, 2 μM / Papp B→A at 2 h, 2 μM: Caco-2, 2 h incubation, pH 7.2; for Papp A→B at 2 h, 2 μM: read-out: Papp A-B (Mari); for Papp B→A at 2 h, 2 μM: read-out: Papp B-A (Mari)
Protocol: 4. Caco-2 Permeation Assay:
Caco-2 cells (purchased from DSMZ Braunschweig, Germany) were seeded at a density of 4.5×10^4 cells per well on 24 well insert plates, 0.4 μm pore size, and grown for 15 days in DMEM medium supplemented with 10% fetal bovine serum, 1% GlutaMAX (100×, GIBCO), 100 U/mL penicillin, 100 μg/mL streptomycin (GIBCO) and 1% non essential amino acids (100×). Cells were maintained at 37° C. in a humified 5% CO2 atmosphere. Medium was changed every 2-3 day. Before running the permeation assay, the culture medium was replaced by a FCS-free hepes-carbonate transport buffer (pH 7.2). For assessment of monolayer integrity the transepithelial electrical resistance (TEER) was measured. Test compounds were predissolved in DMSO and added either to the apical or basolateral compartment in final concentration of 2 μM in transport buffer. Before and after 2 h incubation at 37° C. samples were taken from both compartments. Analysis of compound content was done after precipitation with methanol by LC/MS/MS analysis. Permeability (Papp) was calculated in the apical to basolateral (A→B) and basolateral to apical (B→A) directions. The apparent permeability was calculated using following equation: Papp=(Vr/Po)(1/S)(P2/t)
Where Vr is the volume of medium in the receiver chamber, Po is the measured peak area or height of the test drug in the donor chamber at t=o, S the surface area of the monolayer, P2 is the measured peak area of the test drug in the acceptor chamber after 2 h of incubation, and t is the incubation time. The efflux ratio basolateral (B) to apical (A) was calculated by dividing the Papp B-A by the Papp A-B. In addition the compound recovery was calculated.

IC50 (B16F10 cells; Mus musculus, B16-F10, 96 h) [nM]	IC50 (B16F10 cells) [nM]	Structure (SMILES)	also measured
170	–	CS(=O)(Cc1cccc(Nc2ncc(F)c(-c3ccc(F)c4ccoc34)n2)c1)=NC#N (racemic) [Example 1, (rac)-[(3-{[5-Fluoro-4-(4-fluoro-1-benzofuran-7-yl)pyrimidin-2-yl]amino}benzyl)(methyl)oxido-λ^6-sulfanylidene]cyanamide]	–
211	–	CS(=N)(=O)Cc1cccc(Nc2ncc(F)c(-c3ccc(F)c4ccoc34)n2)c1 (racemic) [Example 4, (rac)-5-Fluoro-4-(4-fluoro-1-benzofuran-7-yl)-N-{3-[(S-methylsulfonimidoyl)-methyl]phenyl}-pyrimidin-2-amine]	efflux ratio at 2 h, 2 μM [1]: 0.57; Papp A→B at 2 h, 2 μM [1]: 18.3 ×10⁻⁶ cm/s; Papp B→A at 2 h, 2 μM [1]: 10.4 ×10⁻⁶ cm/s
64	–	CS(=O)(Cc1cc(F)cc(Nc2ncc(F)c(-c3ccc(F)c4ccoc34)n2)c1)=NC#N (racemic) [Example 7, (rac)-[(3-Fluoro-5-{[5-fluoro-4-(4-fluoro-1-benzofuran-7-yl)pyrimidin-2-yl]amino}benzyl)(methyl)-oxido-λ^6-sulfanylidene]cyanamide]	–
58	–	CS(=N)(=O)Cc1cc(F)cc(Nc2ncc(F)c(-c3ccc(F)c4ccoc34)n2)c1 (racemic) [Example 10, (rac)-5-Fluoro-4-(4-fluoro-1-benzofuran-7-yl)-N-{3-fluoro-5-[(S-methylsulfonimidoyl)-methyl]-phenyl}-pyrimidin-2-amine]	–
49	–	Cc1cc(CS(C)(=O)=NC#N)cc(Nc2ncc(F)c(-c3ccc(F)c4ccoc34)n2)c1 (racemic) [Example 13, (rac)-[(3-{[5-Fluoro-4-(4-fluoro-1-benzofuran-7-yl)pyrimidin-2-yl]amino}-5-methylbenzyl)-(methyl)oxido-λ^6-sulfanylidene]cyanamide]	–
82	–	Cc1cc(CS(C)(=N)=O)cc(Nc2ncc(F)c(-c3ccc(F)c4ccoc34)n2)c1 (racemic) [Example 16, (rac)-5-Fluoro-4-(4-fluoro-1-benzofuran-7-yl)-N-{3-methyl-5-[(S-methylsulfonimidoyl)-methyl]phenyl}pyrimidin-2-amine]	–
118	–	CS(=O)(Cc1cc(Nc2ncc(F)c(-c3ccc(F)c4ccoc34)n2)cc(S(F)(F)(F)(F)F)c1)=NC#N (racemic) [Example 17, (rac)-{[3-{[5-fluoro-4-(4-fluoro-1-benzofuran-7-yl)pyrimidin-2-yl]amino}-5-(pentafluoro-λ^6-sulfanyl)benzyl](methyl)oxido-λ^6-sulfanylidene}cyanamide]	–
168	–	CS(=N)(=O)Cc1cc(Nc2ncc(F)c(-c3ccc(F)c4ccoc34)n2)cc(S(F)(F)(F)(F)F)c1 (racemic) [Example 18, (rac)-5-Fluoro-4-(4-fluoro-1-benzofuran-7-yl)-N-{3-[(S-methylsulfonimidoyl)methyl]-5-(pentafluoro-λ^6-sulfanyl)phenyl}pyrimidin-2-amine]	–
–	75	CS(=O)(Cc1cccc(Nc2ncc(F)c(-c3ccc(F)c4ccoc34)n2)c1)=NC#N (single isomer, unassigned) [Example 2, [(3-{[5-Fluoro-4-(4-fluoro-1-benzofuran-7-yl)pyrimidin-2-yl]amino}benzyl)(methyl)oxido-λ^6-sulfanylidene]cyanamide]	–
136	–	CS(=O)(Cc1cccc(Nc2ncc(F)c(-c3ccc(F)c4ccoc34)n2)c1)=NC#N (single isomer, unassigned) [Example 3, [(3-{[5-Fluoro-4-(4-fluoro-1-benzofuran-7-yl)pyrimidin-2-yl]amino}benzyl)(methyl)oxido-λ^6-sulfanylidene]cyanamide]	–
260	–	CS(=N)(=O)Cc1cccc(Nc2ncc(F)c(-c3ccc(F)c4ccoc34)n2)c1 (single isomer, unassigned) [Example 5, 5-Fluoro-4-(4-fluoro-1-benzofuran-7-yl)-N-{3-[(S-methylsulfonimidoyl)-methyl]-phenyl}-pyrimidin-2-amine]	–
–	185	CS(=N)(=O)Cc1cccc(Nc2ncc(F)c(-c3ccc(F)c4ccoc34)n2)c1 (single isomer, unassigned) [Example 6, 5-Fluoro-4-(4-fluoro-1-benzofuran-7-yl)-N-{3-[(S-methylsulfonimidoyl)-methyl]-phenyl}-pyrimidin-2-amine]	efflux ratio at 2 h, 2 μM [1]: 0.51; Papp A→B at 2 h, 2 μM [1]: 22.1 ×10⁻⁶ cm/s; Papp B→A at 2 h, 2 μM [1]: 11.3 ×10⁻⁶ cm/s
56	–	CS(=O)(Cc1cc(F)cc(Nc2ncc(F)c(-c3ccc(F)c4ccoc34)n2)c1)=NC#N (single isomer, unassigned) [Example 8, [(3-Fluoro-5-{[5-fluoro-4-(4-fluoro-1-benzofuran-7-yl)pyrimidin-2-yl]amino}benzyl)(methyl)-oxido-λ^6-sulfanylidene]cyanamide]	–
–	52	CS(=O)(Cc1cc(F)cc(Nc2ncc(F)c(-c3ccc(F)c4ccoc34)n2)c1)=NC#N (single isomer, unassigned) [Example 9, [(3-Fluoro-5-{[5-fluoro-4-(4-fluoro-1-benzofuran-7-yl)pyrimidin-2-yl]amino}benzyl)(methyl)-oxido-λ^6-sulfanylidene]cyanamide]	–
–	45	CS(=N)(=O)Cc1cc(F)cc(Nc2ncc(F)c(-c3ccc(F)c4ccoc34)n2)c1 (single isomer, unassigned) [Example 11, 5-Fluoro-4-(4-fluoro-1-benzofuran-7-yl)-N-{3-fluoro-5-[(S-methylsulfonimidoyl)-methyl]-phenyl}-pyrimidin-2-amine]	–
–	94	CS(=N)(=O)Cc1cc(F)cc(Nc2ncc(F)c(-c3ccc(F)c4ccoc34)n2)c1 (single isomer, unassigned) [Example 12, 5-Fluoro-4-(4-fluoro-1-benzofuran-7-yl)-N-{3-fluoro-5-[(S-methylsulfonimidoyl)-methyl]-phenyl}-pyrimidin-2-amine]	–
69	–	Cc1cc(CS(C)(=O)=NC#N)cc(Nc2ncc(F)c(-c3ccc(F)c4ccoc34)n2)c1 (single isomer, unassigned) [Example 14, [(3-{[5-Fluoro-4-(4-fluoro-1-benzofuran-7-yl)pyrimidin-2-yl]amino}-5-methylbenzyl)-(methyl)oxido-λ^6-sulfanylidene]cyanamide]	–
–	114	Cc1cc(CS(C)(=O)=NC#N)cc(Nc2ncc(F)c(-c3ccc(F)c4ccoc34)n2)c1 (single isomer, unassigned) [Example 15, [(3-{[5-Fluoro-4-(4-fluoro-1-benzofuran-7-yl)pyrimidin-2-yl]amino}-5-methylbenzyl)-(methyl)oxido-λ^6-sulfanylidene]cyanamide]	–

Reference: patent US9884849B2, “Fluorinated benzofuranyl-pyrimidine derivatives containing a sulfoximine group” (Bayer Pharma Aktiengesellschaft, priority 2014, dated 2018)
